Measurements reported in ChEMBL document CHEMBL4651402, “Screening of ~5500 FDA-approved drugs and clinical candidates for anti-SARS-CoV-2 activity” (2021).

Test system: SARS-CoV-2
Assay: microbe, parasite or virus in culture
Conditions: Severe acute respiratory syndrome coronavirus 2, Vero C1008, 48 h

Question: Which results are given for `C[C@H]1O[C@@H](O[C@H]2[C@@H](O)C[C@H](O[C@H]3[C@@H](O)C[C@H](O[C@H]4CC[C@@]5(C)[C@H](CC[C@@H]6[C@@H]5CC[C@]5(C)[C@@H](C7=CC(=O)OC7)[C@@H](O)C[C@]65O)C4)O[C@@H]3C)O[C@@H]2C)C[C@H](O)[C@@H]1O` [GITOXIN]?
Answer: IC50: > 20 µM; IC50 (read-out: pIC50 (converted)): > 20 µM

Question: What does the source list for `O=c1[nH]c(=O)n([C@@H]2O[C@H](CO)[C@@H](O)[C@@H]2O)cc1/C=C/Br` [SORIVUDINE]?
Answer: IC50: > 20 µM; IC50 (read-out: pIC50 (converted)): > 20 µM

Question: Which IC50 does the source give for `C[C@]12CC[C@@H]3c4ccc(O)cc4CC[C@H]3[C@@H]1CC[C@@H]2OC(=O)CCC1CCCC1` [ESTRADIOL CYPIONATE] here?
Answer: > 20 µM

Question: And the IC50 (read-out: pIC50 (converted))?
Answer: > 20 µM

Question: With `CNC(=O)c1cc(Oc2ccc(NC(=O)Nc3ccc(Cl)c(C(F)(F)F)c3)cc2)ccn1` [SORAFENIB] as the compound, how does the IC50 read?
Answer: > 20 µM

Question: What about the IC50 (read-out: pIC50 (converted)) of the same compound?
Answer: > 20 µM

Question: `O=C(O)c1cc(/N=N/c2ccc(O)c(C(=O)O)c2)ccc1O` [OLSALAZINE] was tested. Which IC50 did it give?
Answer: > 20 µM

Question: What about the IC50 (read-out: pIC50 (converted)) of the same compound?
Answer: > 20 µM

Question: With `O[C@H](CNC[C@@H](O)[C@H]1CCc2cc(F)ccc2O1)[C@@H]1CCc2cc(F)ccc2O1` as the compound, how does the IC50 read?
Answer: > 20 µM

Question: What about the IC50 (read-out: pIC50 (converted)) of the same compound?
Answer: > 20 µM

Question: What does the source list for `O=C(O)c1ccccc1Nc1cccc(OCc2ccc3ccccc3n2)c1` [SR-2640]?
Answer: IC50: > 20 µM; IC50 (read-out: pIC50 (converted)): > 20 µM

Question: What does the source list for `Cc1cc(C(=O)NCCc2ccc(S(=O)(=O)NC(=O)NN3CCCCCC3)cc2)no1` [GLISOXEPIDE]?
Answer: IC50: > 20 µM; IC50 (read-out: pIC50 (converted)): > 20 µM

Question: With `CC(=O)OCC(=O)[C@@]12OC3(CCCC3)O[C@@H]1C[C@H]1[C@@H]3CCC4=CC(=O)C=C[C@]4(C)[C@@]3(F)[C@@H](O)C[C@@]12C` [AMCINONIDE] as the compound, how does the IC50 read?
Answer: > 20 µM

Question: And the IC50 (read-out: pIC50 (converted))?
Answer: > 20 µM

Question: What does the source list for `CC(Oc1ccccc1)C(=O)N[C@@H]1C(=O)N2[C@@H]1SC(C)(C)[C@@H]2C(=O)O` (some centres not stated) [PHENETHICILLIN]?
Answer: IC50: > 20 µM; IC50 (read-out: pIC50 (converted)): > 20 µM

Question: With `CC(C)=CC1C(CO)C1(C)C` (configuration not stated) [CHRYSANTHEMYL ALCOHOL] as the compound, how does the IC50 read?
Answer: > 20 µM

Question: And the IC50 (read-out: pIC50 (converted))?
Answer: > 20 µM

Question: With `CC(C)(C)NC(=O)c1nn(-c2ccc(F)cc2F)c2c1C1CCC2C1` (configuration not stated) as the compound, how does the IC50 read?
Answer: > 20 µM

Question: And the IC50 (read-out: pIC50 (converted))?
Answer: > 20 µM

Question: `COc1cc(F)c(C(C)C)cc1-c1ccc(C(F)(F)F)cc1CN1C(=O)O[C@H](c2cc(C(F)(F)F)cc(C(F)(F)F)c2)[C@@H]1C` [ANACETRAPIB] was tested. Which IC50 did it give?
Answer: > 20 µM

Question: What about the IC50 (read-out: pIC50 (converted)) of the same compound?
Answer: > 20 µM

Question: `C#C[C@]1(OC(C)=O)CC[C@H]2[C@@H]3CCC4=C[C@@H](OC(C)=O)CC[C@@H]4[C@H]3CC[C@@]21C` [ETHYNODIOL DIACETATE] was tested. Which IC50 did it give?
Answer: > 20 µM

Question: And the IC50 (read-out: pIC50 (converted))?
Answer: > 20 µM

Question: For `CC(C)CCCC(C)C1CCC2C3CCC4CC(=O)CCC4(C)C3CCC12C` (configuration not stated), which IC50 is on record?
Answer: > 20 µM

Question: And the IC50 (read-out: pIC50 (converted))?
Answer: > 20 µM

Question: `Cc1ncc([N+](=O)[O-])n1CC(O)CCl` (configuration not stated) [ORNIDAZOLE] was tested. Which IC50 did it give?
Answer: > 20 µM

Question: What about the IC50 (read-out: pIC50 (converted)) of the same compound?
Answer: > 20 µM

Question: How did the IC50 turn out when `COc1cc(-c2ccc(=O)[nH]n2)ccc1OC(F)F` [ZARDAVERINE] was run?
Answer: > 20 µM

Question: And the IC50 (read-out: pIC50 (converted))?
Answer: > 20 µM

Question: With `O=C(O)[C@H]1C2CCC(CC2)[C@@H]1Nc1nc(-c2c[nH]c3ncc(F)cc23)ncc1F` [PIMODIVIR] as the compound, how does the IC50 read?
Answer: > 20 µM

Question: And the IC50 (read-out: pIC50 (converted))?
Answer: > 20 µM

Question: Which results are given for `CC(C)(C)NCC(O)c1cc(Cl)c(N)c(Cl)c1` (configuration not stated) [CLENBUTEROL]?
Answer: IC50: > 20 µM; IC50 (read-out: pIC50 (converted)): > 20 µM

Question: Which results are given for `CC1OC(n2cc(F)c(=O)[nH]c2=O)C(O)C1O` (configuration not stated)?
Answer: IC50: > 20 µM; IC50 (read-out: pIC50 (converted)): > 20 µM

Question: For `O=[N+]([O-])c1cccc2cn[nH]c12` [7-NITROINDAZOLE], which IC50 is on record?
Answer: > 20 µM

Question: And the IC50 (read-out: pIC50 (converted))?
Answer: > 20 µM

Question: Which IC50 does the source give for `c1ccc2c(c1)Nc1ccccc1S2` [PHENOTHIAZINE] here?
Answer: > 20 µM

Question: What about the IC50 (read-out: pIC50 (converted)) of the same compound?
Answer: > 20 µM

Question: What does the source list for `O=C(O)CCc1c[nH]c2ccccc12` [INDOLYLPROPIONIC ACID]?
Answer: IC50: > 20 µM; IC50 (read-out: pIC50 (converted)): > 20 µM

Question: What does the source list for `CC(Cc1cccc(C(F)(F)F)c1)NCCOC(=O)c1ccccc1` (configuration not stated) [BENFLUOREX]?
Answer: IC50: > 20 µM; IC50 (read-out: pIC50 (converted)): > 20 µM

Question: What does the source list for `CN(C(=O)C(Cl)Cl)c1ccc(OC(=O)c2ccco2)cc1` [DILOXANIDE FUROATE]?
Answer: IC50: > 20 µM; IC50 (read-out: pIC50 (converted)): > 20 µM

Question: What does the source list for `Cc1ccc(O)c([C@H](CCN(C(C)C)C(C)C)c2ccccc2)c1` [TOLTERODINE]?
Answer: IC50: > 20 µM; IC50 (read-out: pIC50 (converted)): > 20 µM

Question: For `C=CC(=O)N1CCC(Oc2cc3c(Nc4ccc(Cl)c(Cl)c4F)ncnc3cc2OC)CC1` [POZIOTINIB], which IC50 is on record?
Answer: > 20 µM

Question: And the IC50 (read-out: pIC50 (converted))?
Answer: > 20 µM

Question: Which results are given for `Nc1nc(O)c2ncn([C@@H]3O[C@H](CO)[C@@H](O)[C@H]3F)c2n1`?
Answer: IC50: > 20 µM; IC50 (read-out: pIC50 (converted)): > 20 µM

Question: `CC1C(=O)OC2CCN3CC=C(COC(=O)C(C)(O)C1(C)O)C23` (configuration not stated) was tested. Which IC50 did it give?
Answer: > 20 µM

Question: And the IC50 (read-out: pIC50 (converted))?
Answer: > 20 µM

Question: Which IC50 does the source give for `CCN(CC)C(=O)N[C@H]1C=C2c3cccc4[nH]c(Br)c(c34)C[C@H]2N(C)C1` [BROMERGURIDE] here?
Answer: > 20 µM

Question: And the IC50 (read-out: pIC50 (converted))?
Answer: > 20 µM

Question: Which IC50 does the source give for `C/C=C1/C[N+]2(C)CCC34C(=C(C=O)[C@H]1C[C@@H]32)Nc1ccccc14` (some centres not stated) here?
Answer: > 20 µM

Question: What about the IC50 (read-out: pIC50 (converted)) of the same compound?
Answer: > 20 µM

Question: For `CNC(=O)Oc1ccc2c(c1)[C@]1(C)CCN(C)C1N2C` (some centres not stated), which IC50 is on record?
Answer: > 20 µM

Question: And the IC50 (read-out: pIC50 (converted))?
Answer: > 20 µM

Question: `C[C@H]1CN(C2COC2)CCN1c1ccc(Nc2cc(-c3ccnc(N4CCn5c(cc6c5CC(C)(C)C6)C4=O)c3CO)cn(C)c2=O)nc1` [FENEBRUTINIB] was tested. Which IC50 did it give?
Answer: > 20 µM

Question: And the IC50 (read-out: pIC50 (converted))?
Answer: > 20 µM

Question: How did the IC50 turn out when `Cc1nc(O)c2cc(CN(C)c3ccc(C(=O)NC(CCC(=O)O)C(=O)O)s3)ccc2n1` (configuration not stated) was run?
Answer: > 20 µM

Question: And the IC50 (read-out: pIC50 (converted))?
Answer: > 20 µM

Question: What does the source list for `N#CC(c1ccc(Cl)cc1)c1ccc(-n2ncc(=O)[nH]c2=O)cc1Cl` (configuration not stated) [CLAZURIL]?
Answer: IC50: > 20 µM; IC50 (read-out: pIC50 (converted)): > 20 µM

Question: For `C=CCN1CCc2nc(N)sc2CC1` [TALIPEXOLE], which IC50 is on record?
Answer: > 20 µM

Question: And the IC50 (read-out: pIC50 (converted))?
Answer: > 20 µM

Question: For `OC[C@@H](O)[C@H](O)[C@@H](O)CO` [XYLITOL], which IC50 is on record?
Answer: > 20 µM

Question: What about the IC50 (read-out: pIC50 (converted)) of the same compound?
Answer: > 20 µM

Question: For `O=C(NC1CCN(CCCCC2(C(=O)NCC(F)(F)F)c3ccccc3-c3ccccc32)CC1)c1ccccc1-c1ccc(C(F)(F)F)cc1` [LOMITAPIDE], which IC50 is on record?
Answer: > 20 µM

Question: And the IC50 (read-out: pIC50 (converted))?
Answer: > 20 µM

Question: `O=C(O)CCCCCc1cccc2cncn12` was tested. Which IC50 did it give?
Answer: > 20 µM

Question: And the IC50 (read-out: pIC50 (converted))?
Answer: > 20 µM

Question: `C#C[C@]1(O)CC[C@H]2[C@@H]3CCC4=CC(=O)CC[C@]4(C)[C@H]3CC[C@@]21C` [ETHISTERONE] was tested. Which IC50 did it give?
Answer: > 20 µM

Question: What about the IC50 (read-out: pIC50 (converted)) of the same compound?
Answer: > 20 µM

Question: What does the source list for `CN1CCN(C2=Nc3ccccc3Oc3ccc(Cl)cc32)CC1` [LOXAPINE]?
Answer: IC50: > 20 µM; IC50 (read-out: pIC50 (converted)): > 20 µM

Question: For `CCc1cc(C(N)=S)ccn1` [ETHIONAMIDE], which IC50 is on record?
Answer: > 20 µM

Question: And the IC50 (read-out: pIC50 (converted))?
Answer: > 20 µM

Question: How did the IC50 turn out when `CCC1(C)CC(=O)NC1=O` (configuration not stated) [ETHOSUXIMIDE] was run?
Answer: > 20 µM

Question: And the IC50 (read-out: pIC50 (converted))?
Answer: > 20 µM

Question: Which results are given for `CC(C)CCCC(C)C1CCC2C3CC[C@H]4CCCC[C@]4(C)C3CCC12C` (some centres not stated)?
Answer: IC50: > 20 µM; IC50 (read-out: pIC50 (converted)): > 20 µM

Question: With `CN(C)CC#CC=C1c2ccccc2C=Cc2ccccc21` [INTRIPTYLINE] as the compound, how does the IC50 read?
Answer: > 20 µM

Question: What about the IC50 (read-out: pIC50 (converted)) of the same compound?
Answer: > 20 µM

Question: Which results are given for `O=c1[nH]c2cc(-n3ccnc3)c([N+](=O)[O-])cc2[nH]c1=O` [YM-90K]?
Answer: IC50: > 20 µM; IC50 (read-out: pIC50 (converted)): > 20 µM

Question: What does the source list for `OC[C@H]1O[C@@H](Oc2cc(O)cc(/C=C/c3ccc(O)cc3)c2)[C@H](O)[C@@H](O)[C@@H]1O` [PICEID]?
Answer: IC50: > 20 µM; IC50 (read-out: pIC50 (converted)): > 20 µM

Question: How did the IC50 turn out when `CC12CCCC1C1CC[C@H]3CCCC[C@]3(C)C1CC2` (some centres not stated) was run?
Answer: > 20 µM

Question: And the IC50 (read-out: pIC50 (converted))?
Answer: > 20 µM

Question: Which IC50 does the source give for `CC(=O)NO` [ACETOHYDROXAMIC ACID] here?
Answer: > 20 µM

Question: What about the IC50 (read-out: pIC50 (converted)) of the same compound?
Answer: > 20 µM

Question: `OC[C@H]1O[C@H](O[C@H]2[C@H](O)[C@@H](O)[C@H](O)O[C@@H]2CO)[C@H](O)[C@@H](O)[C@@H]1O` [MALTOSE] was tested. Which IC50 did it give?
Answer: > 20 µM

Question: What about the IC50 (read-out: pIC50 (converted)) of the same compound?
Answer: > 20 µM

Question: `Oc1ccc2c3c1O[C@H]1[C@@H](O)C=C[C@H]4[C@@H](C2)NCC[C@@]341` [NORMORPHINE] was tested. Which IC50 did it give?
Answer: > 20 µM

Question: What about the IC50 (read-out: pIC50 (converted)) of the same compound?
Answer: > 20 µM
